Assay results: PMC8570331, “8-Hydroxyquinoline-Amino Acid Hybrids and Their Half-Sandwich Rh and Ru Complexes: Synthesis, Anticancer Activities, Solution Chemistry and Interaction with Biomolecules” (International Journal of Molecular Sciences, 2021)
Where two headings read alike, the source gives them in different places.

Experiments:
[1] = Proton dissociation constants of the ligands (pH-potentiometry, UV-vis, 1H NMR titrations); type: physicochemical; settings: for pKa: aqueous solution, I = 0.2 M KNO3, T = 25.0 °C
Description: pH-potentiometric measurements were carried out at 25.0 ± 0.1 °C in water in the pH range between 2.0 and 11.5 and at a constant ionic strength of 0.2 M KNO3. The titrations were performed in a carbonate-free KOH solution (0.20 M). The exact concentrations of HNO3 and KOH solutions were determined by pH-potentiometric titrations. An Orion 710A pH-meter equipped with a Metrohm combined electrode (type 6.0234.100) and a Metrohm 665 Dosimat burette were used for the pH-potentiometric measurements. […] The average water ionization constant, pKw, was determined as 13.76 ± 0.01, which is in good agreement with the literature data. The initial volume of the samples was 5.0 mL. The ligand concentration was 1.75 or 2.0 mM. Samples were degassed by bubbling purified argon through them for about 10 min prior to the measurements, and the inert gas was also passed over the solutions during the titrations. The computer program Hyperquad2013 [46] was utilized to establish the stoichiometry of the species and to calculate the equilibrium constants, similarly to that performed in our previous works.
(§1) Agilent Cary 8454 diode array spectrophotometer was utilized to obtain UV-vis spectra in the wavelength range 190–1100 nm. The path length (ℓ) was 1 cm in most cases (the actual ℓ is always indicated in the legends of the figures). The concentrations of the ligands and complexes were between 88 and 240 µM. For HSA and ct-DNA containing samples, complex concentrations were 100 µM, and 0.5 and 2 equiv. biomolecule were added for kinetic studies, respectively. Individual samples contained 0–20 µM HSA and 0–1.75 mM (nucleotide) ct-DNA. Spectra were always background corrected. The computer program HypSpec was used to obtain stability constants.
(§2) Bruker Avance III HD Ascend 500 Plus instrument (Billerica, MA, USA) was used for NMR studies. ^1H NMR spectroscopic measurements were carried out with a WATERGATE water suppression pulse scheme in the presence of 10% (v/v) D2O in most cases. DSS internal standard was added to samples to obtain reference peaks. Complex concentrations were 0.5 mM or 1.0 mM, and 0.5 equiv. HSA was added. ^1H NMR titrations were carried out in the presence of 0.2 M KNO3. With the FHA model peptide, the measurements were performed at 0.5 or 1 mM metal complex concentrations, and 1:1, 1:2 or 2:1 peptide-to-metal complex ratios were applied. The computer program HypSpec was used to obtain stability constants.

[2] = Distribution coefficients, shake-flask n-octanol/buffered aqueous solution; type: physicochemical; settings: pH 7.4, n-octanol/buffer, in 100 mM KCl, read-out: logD7.4
Description: It is worth noting that these amino acid hybrids have excellent water solubility due to their zwitterionic form, unlike most 8-hydroxyquinolines.
Distribution coefficients of the ligands as well as of the complexes were determined at pH = 7.4 using the traditional shake-flask method in n-octanol/buffered aqueous solution (20 mM phosphate) at different chloride ion concentrations (4, 24 and 100 mM) using UV-vis spectrophotometry for the analysis. The measurement and data evaluation were performed as described in our former work.

[3] = Rate of complex formation followed by UV-vis; type: physicochemical; settings: pH 0.7, equimolar ligand and [M(arene)(H2O)3]2+
Description: The complex formation processes were followed in the absence of chloride ions, similar to our previous studies, to obtain comparative data. Time dependence of UV-vis spectra recorded for the equimolar solution of the ligand and [M(arene)(H2O)3]^2+ at pH 0.7 and 4.1 was followed. The charge-transfer band in the 340–500 nm region is a good indicator for complexation. […] The equilibration time decreased to <2 min for both RhCp* complexes at pH 4.1, while ~1.5 h was needed for the RuCym complexes, as it is shown in Figure S18. Although, in the isolated solid complexes, the neutral ligands are coordinated, in solution under this condition, the formation of complexes with the general formula [M(arene)(HQCl-D-(h)ProH−1)(H2O)]^+ is expected due to the deprotonation of the non-coordinating carboxyl group. In summary, these findings clearly indicate the high stability of the title complexes and the considerable difference in the rate of complex formation with the two types of metal ions.
Agilent Cary 8454 diode array spectrophotometer was utilized to obtain UV-vis spectra in the wavelength range 190–1100 nm. The path length (ℓ) was 1 cm in most cases (the actual ℓ is always indicated in the legends of the figures). The concentrations of the ligands and complexes were between 88 and 240 µM. […]

[4] = Formation constants of RhCp* complexes by ligand displacement with 2-picolylamine; type: physicochemical; settings: pH 7.4, displacement by 2-picolylamine, UV-vis, chloride-free
From the text: Besides 2-picolylamine, the rigid aromatic 1,10-phenantroline (phen, Figure 6) or the excess of the 8-hydroxyquinoline ligand itself (Figure S20) also results in the loss of p-cymene. Two main processes were seen upon the addition of two equiv. phen to the complex (Figure 6). The first step is most probably the loss of the arene ring and the formation of a mixed-ligand complex [Ru(II)(HQCl-D-ProH−1)(phen)(H2O)2]^+ (λmax = 500 nm), which is followed by the slower binding of the second phen.
as §1

[5] = Solution stability of the complexes by 1H NMR; type: physicochemical; settings: pH 0.7, 24 h equilibration, 500 μM
Description: as §2

[6] = system: human serum albumin (HSA); assay: CD spectroscopy of HSA secondary structure; type: binding; settings: up to 5 equivalents complex, 50% without complex
Description: Possible changes in the secondary structure of HSA due to its interaction with the RhCp* and RuCym complexes of HQCl-D-hPro were investigated by CD spectroscopy. HSA is mostly composed of α-helices, and its CD spectrum can be characterized by two negative bands (208 and 222 nm). […] Only at higher complex excess (>10) we observed somewhat larger changes; however, such protein-to-complex ratios are far from the biologically relevant conditions.
CD spectroscopy experiments were performed by a JASCO-J-1500 (ABL&E–JASCO Hungary Ltd., Budapest, Hungary) spectrometer using 0.2 or 1 cm optical path length in the wavelength range from 200 to 250 or to 350 nm. The scanning speed was 200 nm/min. The analytical concentration of HSA and ct-DNA was constant (2 and 98 µM, respectively), and the concentration of the complexes was varied (0–26 and 0–47 µM, respectively).

## O=C(O)[C@H]1CCCCN1Cc1cc(Cl)c2cccnc2c1O [HQCl-D-hPro, (R)-5-chloro-7-((homoproline-1-yl)methyl)8-hydroxyquinoline]
[1]; 1H NMR, read-out: pKa (NhPro/ProH+)
  pKa: > 11
[1]; 1H NMR, read-out: pKa (NqH+)
  pKa: 2.52 ± 0.03
[1]; 1H NMR, read-out: pKa (OH)
  pKa: 7.54 ± 0.02
[1]; UV-vis, read-out: pKa (NhPro/ProH+)
  pKa: 11.43 ± 0.01
[1]; UV-vis, read-out: pKa (NqH+)
  pKa: 2.43 ± 0.01
[1]; UV-vis, read-out: pKa (OH)
  pKa: 7.49 ± 0.04
[1]; pH-potentiometry, read-out: pKa (NhPro/ProH+)
  pKa: > 11
[1]; pH-potentiometry, read-out: pKa (NqH+)
  pKa: 2.42 ± 0.04
[1]; pH-potentiometry, read-out: pKa (OH)
  pKa: 7.52 ± 0.06
[1]; at pH 7.4
  fraction of the negatively charged species (O−, COO−, NhPro/ProH+): 42%
[2]
  logD: 0.36

## Cc1c(C)c(C)[c-](C)c1C.O=C(O)[C@H]1CCC[NH+]1Cc1cc(Cl)c2cccnc2c1[O-].[Cl-].[Cl-].[Rh+3] [RhCp*–HQCl-D-Pro, [RhCp*(HQCl-D-Pro)Cl]Cl]
[3]
  time to reach complex formation equilibrium: ~ 30 min
[4]
  stability constant logK of the RhCp* complex: 13.48 ± 0.03

## Cc1c(C)c(C)[c-](C)c1C.O=C(O)[C@H]1CCCC[NH+]1Cc1cc(Cl)c2cccnc2c1[O-].[Cl-].[Cl-].[Rh+3] [RhCp*–HQCl-D-hPro, [RhCp*(HQCl-D-hPro)Cl]Cl]
[5]
  fraction of complex dissociated: ~ 3%
[3]
  time to reach complex formation equilibrium: ~ 3 min
[6]
  α-helix content of HSA in the presence of the complex: 47%
[4]
  stability constant logK of the RhCp* complex: 13.35 ± 0.03

## Cc1ccc(C(C)C)cc1.O=C(O)[C@H]1CCCC[NH+]1Cc1cc(Cl)c2cccnc2c1[O-].[Cl-].[Cl-].[Ru+2] [RuCym–HQCl-D-hPro, [RuCym(HQCl-D-hPro)Cl]Cl]
[5]
  fraction of complex dissociated: ~ 2%
[6]
  α-helix content of HSA in the presence of the complex: 46%
